Results as given in patent US20070154579A1, “Morinda Citrifolia Based Formulation And Methods For Weight Management” (priority 2005, published 2007).
“Also recorded” adds a separate entry of the source. Read-outs that look alike come from different tables or passages of the source. Square brackets hold non-standard residues; d marks the D form. Peptide text beside a SMILES is read from it. Nle = CCCC[C@H](N)C(=O)O; βAla = NCCC(=O)O

Experiments:
Bombesin BB3 [1] = target: T1, Bombesin BB3 (Homo sapiens, UniProt P32247); assay: Bombesin BB3 radioligand binding; conditions: batch 147476; read-out: Concurrent IC50 (reference compound)
T1 construct: expressed in transfected cells; host or cells: Balb 3T3 cells
T1 sequence (P32247 1-399): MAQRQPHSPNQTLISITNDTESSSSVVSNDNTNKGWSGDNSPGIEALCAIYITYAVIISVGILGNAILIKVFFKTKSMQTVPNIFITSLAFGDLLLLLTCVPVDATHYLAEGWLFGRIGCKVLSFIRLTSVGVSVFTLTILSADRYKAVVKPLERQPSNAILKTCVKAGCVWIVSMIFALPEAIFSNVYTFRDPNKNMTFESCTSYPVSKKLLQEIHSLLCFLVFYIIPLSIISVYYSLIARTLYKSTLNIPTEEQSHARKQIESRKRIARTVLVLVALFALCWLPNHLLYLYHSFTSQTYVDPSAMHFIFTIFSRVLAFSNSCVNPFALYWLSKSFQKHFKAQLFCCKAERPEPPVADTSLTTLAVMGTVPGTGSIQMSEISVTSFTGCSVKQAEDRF
Protocol: The effects of juice from Morinda Citrifolia (noni) on metabolic rate were analyzed by analyzing the bombesin response. “TNJ” refers to Morinda citrifolia juice processed according to this invention and commericially available as […] NONI® juice, “Sample #100” is a Noni concentrate and “TNCMP1” refers to Morinda citrifolia evaporative concentrate. The percentage of concentration represents the concentration strength of the particular concentrate tested; that is, the strength of concentration relative to the Morinda citrifolia fruit juice from which the concentrate was obtained.
The following materials and methods were utilized in the Bombesin research.

Bombesin BB3 [2] = target: T1, Bombesin BB3; conditions: historical value, cited from earlier work
Somatostatin sst5 = Somatostatin sst5 (Homo sapiens, UniProt P35346); conditions: historical value, Hill coefficient; cited from earlier work
Sequence of Somatostatin sst5 (P35346 whole entry): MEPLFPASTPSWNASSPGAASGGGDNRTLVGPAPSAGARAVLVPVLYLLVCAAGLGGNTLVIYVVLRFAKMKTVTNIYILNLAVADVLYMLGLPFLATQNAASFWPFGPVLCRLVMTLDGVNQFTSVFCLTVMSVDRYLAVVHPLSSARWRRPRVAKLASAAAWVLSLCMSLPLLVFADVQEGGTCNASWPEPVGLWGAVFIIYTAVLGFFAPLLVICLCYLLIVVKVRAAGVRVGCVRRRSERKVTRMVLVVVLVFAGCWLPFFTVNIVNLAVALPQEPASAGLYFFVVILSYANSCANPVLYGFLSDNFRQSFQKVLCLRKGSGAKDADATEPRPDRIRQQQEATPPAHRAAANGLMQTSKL

Bombesin BB1 = Bombesin BB1 (Homo sapiens, UniProt P28336); conditions: historical value, Hill coefficient; cited from earlier work
Sequence of Bombesin BB1 (P28336 whole entry): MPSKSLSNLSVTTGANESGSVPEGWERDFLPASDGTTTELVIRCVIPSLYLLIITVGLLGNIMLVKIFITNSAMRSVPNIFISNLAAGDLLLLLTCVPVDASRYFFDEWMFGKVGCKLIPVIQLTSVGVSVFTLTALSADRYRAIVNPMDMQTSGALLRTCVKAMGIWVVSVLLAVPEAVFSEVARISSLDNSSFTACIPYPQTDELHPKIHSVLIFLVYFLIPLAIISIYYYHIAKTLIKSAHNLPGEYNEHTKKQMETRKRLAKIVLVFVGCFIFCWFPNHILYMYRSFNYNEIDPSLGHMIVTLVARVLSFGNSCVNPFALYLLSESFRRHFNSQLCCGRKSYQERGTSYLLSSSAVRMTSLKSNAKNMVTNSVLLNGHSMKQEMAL

Adrenergic β2 = Adrenergic β2 (Homo sapiens, UniProt P07550); conditions: ephedrine, from research studies; cited from earlier work
Sequence of Adrenergic β2 (P07550 whole entry): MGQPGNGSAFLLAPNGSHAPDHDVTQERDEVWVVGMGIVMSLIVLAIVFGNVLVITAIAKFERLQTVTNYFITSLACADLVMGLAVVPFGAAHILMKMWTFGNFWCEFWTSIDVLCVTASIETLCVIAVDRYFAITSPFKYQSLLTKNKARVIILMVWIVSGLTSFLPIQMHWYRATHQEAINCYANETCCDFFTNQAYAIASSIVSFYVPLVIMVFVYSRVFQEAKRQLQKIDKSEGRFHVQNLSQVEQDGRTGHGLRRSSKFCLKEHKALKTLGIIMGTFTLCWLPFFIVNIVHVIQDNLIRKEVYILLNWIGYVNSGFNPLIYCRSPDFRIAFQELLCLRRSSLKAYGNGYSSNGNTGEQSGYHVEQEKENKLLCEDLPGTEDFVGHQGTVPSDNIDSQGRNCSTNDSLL

Adrenergic β1 = Adrenergic β1 (Homo sapiens, UniProt P08588); conditions: ephedrine, from research studies; cited from earlier work
Sequence of Adrenergic β1 (P08588 whole entry): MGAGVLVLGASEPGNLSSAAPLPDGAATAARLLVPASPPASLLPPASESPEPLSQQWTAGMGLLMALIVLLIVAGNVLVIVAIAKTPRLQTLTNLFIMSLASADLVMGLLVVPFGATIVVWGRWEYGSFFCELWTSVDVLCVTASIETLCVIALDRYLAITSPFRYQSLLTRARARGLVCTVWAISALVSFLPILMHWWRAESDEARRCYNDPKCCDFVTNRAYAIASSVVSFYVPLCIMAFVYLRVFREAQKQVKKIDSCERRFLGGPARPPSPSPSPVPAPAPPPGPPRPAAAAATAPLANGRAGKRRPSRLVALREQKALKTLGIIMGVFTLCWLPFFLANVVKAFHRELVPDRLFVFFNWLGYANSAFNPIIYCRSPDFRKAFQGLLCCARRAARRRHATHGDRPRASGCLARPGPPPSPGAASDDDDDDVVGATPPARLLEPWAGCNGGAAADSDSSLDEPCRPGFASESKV

Adrenergic β3 = Adrenergic β3 (Homo sapiens, UniProt P13945); conditions: ephedrine, from research studies; cited from earlier work
Sequence of Adrenergic β3 (P13945 whole entry): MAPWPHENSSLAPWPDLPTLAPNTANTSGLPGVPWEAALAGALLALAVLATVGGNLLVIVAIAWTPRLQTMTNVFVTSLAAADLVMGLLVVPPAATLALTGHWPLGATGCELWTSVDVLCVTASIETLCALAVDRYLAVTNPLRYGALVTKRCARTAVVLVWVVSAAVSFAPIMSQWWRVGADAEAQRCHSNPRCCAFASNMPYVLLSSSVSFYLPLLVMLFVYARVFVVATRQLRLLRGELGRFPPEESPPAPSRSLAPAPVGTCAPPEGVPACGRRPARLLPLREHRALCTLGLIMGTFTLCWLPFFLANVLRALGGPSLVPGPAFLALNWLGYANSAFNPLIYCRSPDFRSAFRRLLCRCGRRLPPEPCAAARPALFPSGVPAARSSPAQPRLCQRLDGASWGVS

For `CCCC[C@H](NC(=O)[C@H](Cc1ccccc1)NC(=O)[C@H](Cc1c[nH]cn1)NC(=O)CCNC(=O)[C@@H](NC(=O)[C@H](C)NC(=O)[C@H](Cc1c[nH]c2ccccc12)NC(=O)[C@H](CCC(N)=O)NC(=O)[C@H](N)Cc1ccccc1)C(C)C)C(N)=O` [(D-Phe^6, β-Ala^11, Phe^13, Nle^14)-BN (6-14)] (H-[dF]QWAV[βAla]HF[Nle]-NH2; N-terminus and C-terminus assumed), the IC50 (Bombesin BB3 [1]) is given as 5.99 nM, the “Historical nH (reference compound)” value (Bombesin BB3 [2]; Hill coefficient) is given as 0.9 and the IC50 (Bombesin BB3 [2]; read-out: Historical IC50 (reference compound)) is given as 6.1 nM. For the same molecule, the Ki (Bombesin BB3 [2]; read-out: Historical Ki (reference compound)) was 4.1 nM.

For Somatostatin-14, the “Historical nH (reference compound; no head)” value (Somatostatin sst5) is listed as 0.8.

In the case of Neuromedin B, the “Historical nH (reference compound)” value (Bombesin BB1) is listed as 0.9.

In the case of `CN[C@@H](C)[C@H](O)c1ccccc1` [ephedrine], the “adrenergic β-2 response (agonist/antagonist)” value (Adrenergic β2) is given as “inhibits; also recorded: antagonist”, the “adrenergic β-1 response (agonist/antagonist)” value (Adrenergic β1) is given as “inhibits; also recorded: antagonist” and the “adrenergic β-3 response (agonist/antagonist)” value (Adrenergic β3) is given as “activating; also recorded: agonist”.
